Measured values taken from the NIST ThermoML archive (doi:10.1021/je900596d).

Details: 357.06 K, Fluid (supercritical or subcritical phases), Vibrating tube method

FC(F)=C(F)C(F)(F)F [hexafluoropropene]
Details	mass density [kg/m3]
1651 kPa	106.72
1667.9 kPa	108.13
1685.3 kPa	109.66
1702 kPa	111.18
1718.9 kPa	112.75
1735.9 kPa	114.23
1753 kPa	115.8
1769.9 kPa	117.29
1786.9 kPa	118.92
1803 kPa	120.39
1819.2 kPa	121.89
1847.5 kPa	124.55
1875.7 kPa	127.36
1903.2 kPa	130.04
1931.1 kPa	132.82
1957.3 kPa	135.5
1986 kPa	138.47
2038.9 kPa	144.14
2064.4 kPa	146.83
2091.5 kPa	149.92
2116.5 kPa	152.72
2145.2 kPa	156.08
2172.7 kPa	159.34
2200.4 kPa	162.66
2225 kPa	165.74
2253.6 kPa	169.3
2283.1 kPa	173.12
2311 kPa	176.88
2341.3 kPa	180.98
2367.5 kPa	184.68
2394.8 kPa	188.59
2419.3 kPa	192.26
2446.6 kPa	196.5
2475.8 kPa	201.14
2500.5 kPa	205.14
2527.1 kPa	209.62
2552.5 kPa	214.03
2579.2 kPa	218.88
2607.1 kPa	224.15
2634.5 kPa	229.51
2660.8 kPa	234.97
2686.6 kPa	240.49
2714.4 kPa	246.83
2743.6 kPa	253.76
2771 kPa	260.83
2795.2 kPa	267.52
2819.6 kPa	274.69
2846 kPa	283.07
2871.1 kPa	291.79
2896.7 kPa	302.07
2920.7 kPa	312.54
2945.8 kPa	324.88
2970.4 kPa	338.77
2995.1 kPa	355.46
3000.2 kPa	359.35
3002.3 kPa	361.25
3004.8 kPa	363.25
3007 kPa	365.19
3009.1 kPa	367.24
3011.2 kPa	369.24
3013.5 kPa	371.38
3017.2 kPa	375.58
3020.4 kPa	379.51
3023.1 kPa	383.27
3025.3 kPa	386.99
3027.3 kPa	391.04
